In PMC9953224, “Pharmacokinetic Evaluation of New Drugs Using a Multi-Labelling Approach and PET Imaging: Application to a Drug Candidate with Potential Application in Neuromuscular Disorders” (Biomedicines, 2023):
Entries after “also recorded” stand apart in the source; their conditions may differ. Where two headings read alike, the source gives them in different places.

What was measured:
[1] = biological target: T1, FKBP12 (Homo sapiens, UniProt P62942); test: Competitive ligand binding assay (FKBP/FRB NanoBiT luminescence protein complementation) in HEK293 cells; assay type: cell-based
T1 construct: host or cells: HEK293
Procedure: Briefly, HEK293 (ATCC) cells were transfected with FKBP/FRB NanoBiT Control Pair (Promega, Madison, WI, USA) and kinetic measurements were performed 24 h after transfection with Nano-Glo Live Cell Reagent (Promega), as described by the manufacturer. A total of 30 nM rapamycin (Sigma-Aldrich, Madrid, Spain) and AHK2 (1 μM–10 mM) was sequentially added and each effect was recorded for 10 min. Specific activity was normalized to vehicle, and IC50 was calculated using GraphPad Prism by fitting the data to a four-parameter logistic curve.

[2] = biological target: T2, FKBP12/RyR interaction (Homo sapiens, UniProt P62942); test: In situ proximity ligation assay (PLA) in human myotubes under nitro-oxidative stress; assay type: cell-based; details: human myotubes challenged with peroxynitrite donor SIN1 (5 mM, 30 min)
T2 construct: endogenous in cells; host or cells: immortalized human myoblasts differentiated into myotubes
Procedure: In situ PLA was used for evaluation of FKBP12/RyR stability in human myotubes under nitro-oxidative stress, as previously described. Briefly, immortalized human myoblasts (Myology Institute, Paris, France) were differentiated into myotubes and nitro-oxidative stress was induced by addition of the peroxynitrite donor 3-morpholinosydnonimine (SIN1, 5 mM, SCBT, Heidelberg, Germany) for 30 min. Myotubes were fixed with 4% paraformaldehyde (Aname, Madrid, Spain) and incubated overnight with the following primary antibodies: anti-RyR mouse mAb (1:200, Thermo Scientific, Waltham, MA, USA), and anti-FKBP12 rabbit pAb (1:100, Novus Biologicals, Centennial, CO, USA). The Duolink in situ PLA Orange assay kit was used with corresponding conjugated secondary antibodies (Sigma). Samples were counterstained with FITC-conjugated Myosin Heavy Chain-CFS mAb (MyHC, 1:50, R&D, Minneapolis, MN, USA) and mounted with ProLong Gold antifade reagent (Life Technologies, Eugene, OR, USA). Image quantification was performed with ImageJ (NIH). For each image, the total number of spots was normalized to the MyHC area. At least 3 images per condition were analysed with an average of 8–9 myotubes per image. Statistical significance was determined using One-Way ANOVA followed by Dunett’s multiple comparisons test. p-values < 0.05 were considered statistically significant.

[3] = Pharmacokinetics from metabolite-corrected arterial plasma TACs after intravenous administration; assay type: in vivo, Sprague Dawley Rats; details: for MRT / Vd / half-life: Sprague Dawley, rat, arterial plasma; for MRT: read-out: MRT mean residence time (converted); for Vd / half-life: iv; for half-life: read-out: t1/2 terminal half-life
Procedure: Anaesthesia was induced with 5% isoflurane (IsoFlo®, Abbott Laboratories, Abbott Park, IL, USA) and maintained by 2% of isoflurane in 100% O2. During the experiment, rats were kept normothermic using a heating blanket (Homeothermic Blanket Control Unit; Bruker). The rat was positioned in supine position on an operating table and the two distal hind limbs were fixed forming an approximately 30° angle with the horizontal plane. The surgical region was scrubbed using Betadine, starting in the centre, and making a circular sweep outward. A skin incision was made in the femoral region. Soft tissue was dissected to expose the femoral neurovascular bundle, consisting of femoral vein, artery, and nerve. Fine tip forceps were placed between the artery, vein and nerve and were slowly opened to separate the vessels, exposing an approximately 1 cm length section of artery/vein. The vena profunda femoris was sutured to avoid retrograde bleeding via this vessel, and the sapheno-femoral junction was cauterized. A few millimetres from venatomy, a vascular clip was inserted in the direction of the catheter (to control the flow) and a suture was applied in the opposite direction (to avoid retrograde bleeding). The same operation was carried out both on the femoral vein and femoral artery. An appropriate syringe filled with 50 U/mL Heparin/physiologic saline solution was fixed at the terminus of the catheters and these were filled with heparinized saline solution. On the upper half of the vessel circumference, at a 45° angle, an incision was made and the catheter (fine bore polythene tubing: ID 0.58 mm, OD 0.98 mm) was inserted through the venotomy and advanced to the vascular clip. The vascular clip was then removed, and the catheter advanced distally towards the level of the inguinal ligament. The catheter was finally secured to the femoral vein/artery proximally and distally with 2 single knots using 4–0 braided silk suture. The catheters were connected to an in-house developed system composed by a peristaltic pump and gamma-radiation coincidence detector (Bioscan, B-FC-4100). The femoral artery catheter, the gamma detector, the peristaltic pump, and the femoral vein catheter were thus connected in series, to enable the extracorporeal circulation of blood (flow 150 μL/s from femoral artery to femoral vein) and continuous measurement of radioactivity in the blood (Figure 1).
The labelled compounds were administrated two different ways: (i) intravenous bolus infusion (ca. 37 MBq in 300 μL of saline solution was injected through the femoral vein catheter) and (ii) oral bolus administration. For oral administration, animals were fasted for 5 h. The radioactive dose (ca. 74 MBq in 300 μL of saline solution) was administered using flexible 20-gauge disposable flexible PTFE feeding needles (Fine Science Tools, F.S.T.) and a small animal Laryngoscope (Penn-Century, Model LS-2) for the correct visualization of the oesophagus. The study was conducted under no carrier added (NCA, dose adjusted to 1 μg/Kg) and carrier added (CA, dose adjusted to 5 mg/Kg) conditions. In all cases, data were imported in real time to an excel sheet using PLX-DAX add-on for Microsoft Excel (measured in volts per second).
Arterial blood samples (1 per animal) were withdrawn (see Figure 1) from the femoral artery catheter and introduced into a capillary (Microhaematocrit capillaries 75 × 1.55, Nahita). Samples were centrifuged at 11,000× g […] for 10 min and the haematocrit was determined. A second blood sample was withdrawn and the amount of radioactivity of a fixed volume (10 µL) was measured in an automatic gamma counter (2470 Wizard, PerkinElmer) to determine Cb (concentration of radioactivity in blood) and convert data imported with PLX-DAX (Volts per seconds) into Bq/s using a previously determined calibration curve. Values were then expressed as percentage of injected dose per gram of blood (% ID/g). […]

[4] = 1 ug/kg, intravenous, 1 µg/Kg, n = 5
[5] = intravenous, both groups (1 µg/Kg and 5 mg/Kg) pooled together

T1 sequence (P62942 whole entry): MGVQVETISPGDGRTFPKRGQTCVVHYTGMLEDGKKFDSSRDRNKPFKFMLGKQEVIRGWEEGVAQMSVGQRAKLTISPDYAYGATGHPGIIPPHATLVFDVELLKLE

COc1ccc(SCc2cn(CCN(C)C)nn2)cc1 [AHK2, 1-[2-(N,N-dimethylamino)ethyl]-4-[(4-methoxyphenyl)thiomethyl]-1H-1,2,3-triazole]
IC50 ([1]; 30 nM rapamycin, AHK2 1 μM–10 mM, read-out: IC50, displacement of rapamycin from FKBP12 (inhibition of FKBP12-Rapamycin-FRB interaction)): 2980 µM
induction of FKBP12/FRB dimerization (luminescence) ([1]; rapamycin 30 nM): did not induce FKBP12/FRB dimerization; also recorded: not able to induce FKBP12/FRB dimerization
increase of FKBP12/RyR interaction (stabilization) [2]: 89%
MRT [3, 4]: 8.48 min
Vd ([3]; 1 ug/kg, intravenous, 1 µg/Kg, n = 5, read-out: Vss volume of distribution at the steady state): 1.03 ± 0.695 L
Vd ([3]; 1 ug/kg, intravenous, 1 µg/Kg, n = 5, read-out: Vz volume of distribution based on the terminal slope): 2 ± 0.43 L
half-life [3, 4]: 11.7 ± 3.22 min
Vd ([3]; 5 mg/kg, intravenous, 5 mg/Kg, n = 5, read-out: Vss volume of distribution at the steady state): 1.13 ± 0.443 L
Vd ([3]; 5 mg/kg, intravenous, 5 mg/Kg, n = 5, read-out: Vz volume of distribution based on the terminal slope): 2.34 ± 0.609 L
half-life ([3]; 5 mg/kg, intravenous, 5 mg/Kg, n = 5): 13.6 ± 3.42 min
Vd ([3]; both groups (1 µg/Kg and 5 mg/Kg) pooled together, read-out: Vss volume of distribution at the steady state): 1.08 ± 0.809 L
Vd ([3]; both groups (1 µg/Kg and 5 mg/Kg) pooled together, read-out: Vz volume of distribution based on the terminal slope): 2.17 ± 1.13 L
half-life ([3]; both groups (1 µg/Kg and 5 mg/Kg) pooled together): 12.6 ± 3.3 min
MRT ([3]; intravenous, 5 mg/Kg, n = 5): 8.59 min
MRT [3, 5]: 8.53 min
AUC area under the curve ([3]; intravenous, 1 µg/Kg, n = 5): 53.99 ± 11.04 %IDxs/mL
Cl plasma clearance ([3]; intravenous, 1 µg/Kg, n = 5): 1.91 ± 0.41 mL/s
AUC area under the curve ([3]; intravenous, 5 mg/Kg, n = 5): 59.39 ± 19.76 %IDxs/mL
Cl plasma clearance ([3]; intravenous, 5 mg/Kg, n = 5): 1.87 ± 0.73 mL/s
AUC area under the curve [3, 5]: 56.69 ± 15.36 %IDxs/mL
Cl plasma clearance [3, 5]: 1.89 ± 0.55 mL/s
t1/2 terminal half-life [3, 5]: 12.63 ± 3.29 min
